In ChEMBL document CHEMBL3430912, “GSK Tres Cantos Anti-Kinetoplastid Screening (TCAKS) Data”:
pIC50: −log10 of the molar value.

Tests used:
Trypanosoma cruzi [1] = test: GSK_TCAKS: pIC50 Trypanosoma cruzi viability assay using beta-GAL activity. This assay was run at single shot at 5uM compound concentration per well. The biological reagents consisted of NIH-3T3 host cells and trypomastigotes parasitic cells; both cell types were set to a 3.3 * 10^5 cells/mL dilution in assay DMEM by means of a CASY cell counter device using a 60um capillary. 6 uL of the mixture were dispensed per well (about 1 * 10^3 host-cells and 1 * 10^3 parasites) with a Multidrop Combi dispenser. […] In all wells, the percentage of DMSO never exceeded 0.5%. Plates incubated for four days at 37C, 5% CO2. The substrate used for the assay fluorescence intensity (FLINT) readout was resorufin-beta-D-galactopiranoside (Sigma-Aldrich) at 5uM per well. It was diluted in PBS supplemented with the soft detergent Igepal (Fluka).; assay type: functional, organism-based, Mus musculus; conditions: Tulahuen, NIH3T3
Trypanosoma cruzi [2] = test: (§1) GSK_TCAKS: pIC50 H2C9 Imaging: H9c2 Host Cardiomyocytes. […] Cells were then washed once with PBS before infection. T. cruzi trypomastigotes, collected at days 5 to 8 after infection from LLC-MK2 parasite infected cultures, were allowed to swim out for 4h at 37C from a centrifuged pellet (2,500 rpm/10 min/room temperature). Trypomastigotes were then collected and counted in a CASY Cell Counter. Trypomastigotes, in supplemented DMEM, were added to H9c2 cultures in a multiplicity of infection of 1 and incubated for 18 h. Cells were washed once with PBS before incubation of the infected H9c2 monolayer with trypsin (Life-Technologies) to detach cells from the flask. Cells were counted in a CASY Cell Counter using a 150 um capillary and their density set at 5 * 10^4 cells per mL in supplemented assay DMEM. Infected H9c2 were dispensed into 384-well poly-lysine coated assay plates at 50uL per well using a Multidrop Combi dispenser. After seeding them, the plates were incubated at 37C, 5% CO2 for 72h. Cultures were then fixed and stained by addition of 50 uL of a solution containing 8% formaldehyde and 4 uM DRAQ5 DNA dye (BioStatus, UK) per well. […] Five images were collected per well for reliable statistical analysis. Automated image analysis was performed with a script developed on Acapella High Content Imaging and Analysis Software (PerkinElmer). Output: Number of H9c2 Host Cardiomyocytes nuclei to determine drug-related cytotoxicity.; assay type: functional, organism-based, Rattus norvegicus; conditions: H9c2, 4 h
[3] = tested on: Trypanosoma brucei brucei; test: GSK_TCAKS: pIC50 Trypanosoma brucei viability assay using fluorescence intensity. Assay plates (1536-well) were prepared by dispensing 25nL of compound solution per well using an Echo acoustic dispenser (Labcyte).; assay type: functional, organism-based; conditions: Lister 427, 2 h
Leishmania donovani [4] = test: (§2) GSK_TCAKS: pIC50 Leishmania donovani Imaging: THP-1 Host Macrophages. Assay plates (384-well) were prepared by adding 250nL of compound to each well. For single shot assay, the final compound concentration was 5 uM. […] Automated image analysis was performed with a script developed on Acapella High Content Imaging and Analysis Software (PerkinElmer). Output: THP-1 cell count were reported for each well.; assay type: functional, organism-based, Homo sapiens
Leishmania donovani [5] = test: as §2, with “Infected” for “THP-1 Host”, “Percent of infected macrophage cells” for “THP-1 cell count”; assay type: functional, organism-based, Homo sapiens; conditions: THP-1
NIH3T3 = test: GSK_TCAKS: pIC50 NIH 3T3 cell line viability assay using luminiscence. Tissue culture surface treated assay plates (1536-well) were used. […] The 100% cells survival control was determined exposing the host-cells to a 0.5% DMSO concentration, whereas the 100% toxicity control was achieved by seeding the cells in presence of Amphotericin B at 50uM. Plates were incubated for four days at 37C, 5% CO2. The assay readout was developed by addition of 5uL of CellTiter-Glo Reagent following the manufacturer's instructions. Luminiscence was measured using a ViewLux.; assay type: functional, cell-based; conditions: Mus musculus, NIH3T3, 96 h
Leishmania donovani [6] = test: as §2, with “Amastigotes/Macrophages.” for “THP-1 Host Macrophages.”, “Average number of amastigotes per macrophage” for “THP-1”, “cell” for “cell count”; assay type: functional, organism-based, Homo sapiens; conditions: THP-1
Leishmania donovani [7] = test: GSK_TCAKS: pIC50 Leishmania donovani viability assay using fluorescence intensity. Assay plates (1536-well) were prepared by adding 30nL per well of compound. For single shot assay, the final compound concentration was 5uM. […] Briefly, eGFP LdBOB axenic amastigotes were harvested, fixed and counted in a CASY cell counter (Roche-Applied Science). A final concentration of 1.5 * 10^5 cells per well were prepared in amastigote media containing 500 U/mL penicillin/streptomycin (Invitrogen) and 6uL was dispensed to each experimental well using a Multidrop Combi dispenser (Thermo Scientific). 6uL of assay media was dispensed to control columns used as reference for 100% compound response. Following incubation for 72 h at 37C, 5% CO2, 2 uL of resazurin was added to each well at a final concentration of 0.5 mM in phosphate buffered saline (PBS) with IGEPAL (Sigma-Aldrich), 0.05% (v/v).; assay type: functional, organism-based
[8] = target: Sterol 14-alpha demethylase (Trypanosoma cruzi (strain CL Brener), UniProt Q7Z1V1); test: GSK_TCAKS: pIC50 CYP51 from Trypanosoma cruzi.; assay type: functional
Sterol 14-alpha demethylase, sequence (Q7Z1V1 whole entry): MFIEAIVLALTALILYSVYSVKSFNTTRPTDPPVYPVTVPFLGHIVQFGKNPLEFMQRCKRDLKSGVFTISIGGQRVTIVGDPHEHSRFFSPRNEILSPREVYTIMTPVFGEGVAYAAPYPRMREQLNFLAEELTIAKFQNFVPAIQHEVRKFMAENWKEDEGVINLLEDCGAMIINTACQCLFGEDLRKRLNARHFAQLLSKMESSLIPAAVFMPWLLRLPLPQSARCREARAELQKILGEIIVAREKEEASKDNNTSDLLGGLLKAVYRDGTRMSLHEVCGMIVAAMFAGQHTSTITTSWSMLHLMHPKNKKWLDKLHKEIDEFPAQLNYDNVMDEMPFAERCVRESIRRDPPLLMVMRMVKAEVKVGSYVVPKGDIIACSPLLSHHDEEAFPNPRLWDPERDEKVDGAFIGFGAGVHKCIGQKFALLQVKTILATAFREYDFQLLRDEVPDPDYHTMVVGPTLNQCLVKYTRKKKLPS

[9] = GSK_TCAKS: pIC50 HepG2 human cell line viability assay using luminiscence. […] Seeding density was checked to ensure that new mono-layers were not more than 50% confluent at the time of harvesting. Cell suspension was added to 500 mL of the same medium at a final density of 1.2 * 10^5 cells/mL. This cell suspension was dispensed (25 uL, 3000 cells per well) into 384-well clear-bottom plates using a Multidrop Combi dispenser. Prior to addition of the cell suspension, the screening compounds (250 nL) were pre-dispensed into the plates with an Echo liquid handler. Plates were incubated for 48 h at 37C, 5% CO2. After incubation, plates equilibrated at room temperature for 30 min before proceeding to develop the luminescent signal. The signal developer, CellTiter-Glo Reagent, was allowed to equilibrate at room temperature for 30 min and added to the plates (25uL per well) using a Multidrop Combi dispenser. Plates were left for 10 min at room temperature for stabilization and then read using a ViewLux.; assay type: toxicity, cell-based
Trypanosoma cruzi [10] = test: as §1, with “Trypanosoma cruzi” for “H2C9”, “Infected Cells.” for “H9c2 Host Cardiomyocytes.”, “percentage” for “Number”, “infected cells per well as a second infection marker.” for “H9c2 Host Cardiomyocytes nuclei to determine drug-related cytotoxicity.”; assay type: functional, organism-based, Rattus norvegicus; conditions: H9c2, 4 h
[11] = tested on: Trypanosoma brucei brucei; test: GSK_TCAKS: pIC50 Trypanosoma brucei viability assay using luminiscence. Assay plates (1536-well) were prepared. T. brucei cultures were harvested and counted in a CASY cell counter. A parasite suspension was prepared at a final concentration of 5 * 10^4 cells/mL in complete HMI9 medium and 6uL was dispensed to all wells containing compounds using a Multidrop Combi dispenser. 6uL of HMI9 media with 0.4% DMSO were dispensed to control columns. Plates were incubated for 24 h at 37C, 5% CO2 then tempered for 10 min at room temperature. ATP content was quantified by adding 4 uL of CellTiter-Glo Reagent (Promega) according to the manufacturer's instructions. Luminescence was measured using a ViewLux.; assay type: functional, organism-based; conditions: Lister 427, CASY
Trypanosoma cruzi [12] = test: as §1, with “Trypanosoma cruzi” for “H2C9”, “Amastigotes/Cell.” for “H9c2 Host Cardiomyocytes.”, “number” for “Number”, “amastigotes per cell as infection level measurement.” for “H9c2 Host Cardiomyocytes nuclei to determine drug-related cytotoxicity.”; assay type: functional, organism-based, Rattus norvegicus; conditions: H9c2, 4 h

For `O=C(NCc1ccncc1)c1ccccc1N1CCCN(C(=O)Cc2ccc(F)c(F)c2)CC1`, the pIC50 (Trypanosoma cruzi [1]) was 6.90, the pIC50 (Trypanosoma cruzi [2]) was less than 4.30 and the pIC50 [3] was 5.20. The pIC50 (Leishmania donovani [4]) was less than 4.30, the pIC50 (Leishmania donovani [5]) was less than 4.30 and the pIC50 (NIH3T3) was 4.80. The pIC50 (Leishmania donovani [6]) was less than 4.30, the pIC50 (Leishmania donovani [7]) was 5.60 and the pIC50 [8] was 7.10. The IC50 at 48 h [9] was greater than 100 µM, the pIC50 (Trypanosoma cruzi [10]) was 7.10 and the pIC50 [11] was 4.70. It also gave a pIC50 (Trypanosoma cruzi [12]) of 7.10.

For `CCN(CC)S(=O)(=O)c1ccc(C(=O)Nc2cc(C)nn2-c2nc(C)c(C)c(=O)[nH]2)cc1`, the pIC50 (Trypanosoma cruzi [1]) was 6.20, the pIC50 (Trypanosoma cruzi [2]) was less than 4.30 and the pIC50 [3] was 6.50. The pIC50 (Leishmania donovani [4]) was 5.50, the pIC50 (Leishmania donovani [5]) was less than 4.30 and the pIC50 (NIH3T3) was less than 4.30. The pIC50 (Leishmania donovani [6]) was less than 4.30, the pIC50 (Leishmania donovani [7]) was 6.30 and the pIC50 [8] was less than 4.00. The IC50 at 48 h [9] was greater than 100 µM, the pIC50 (Trypanosoma cruzi [10]) was 5.80 and the pIC50 [11] was 6.50. It also gave a pIC50 (Trypanosoma cruzi [12]) of 6.50.

Compound `COc1ccc(C(C)(C)C)cc1S(=O)(=O)n1ccnc1` has a pIC50 (Trypanosoma cruzi [1]) of 6.85, a pIC50 (Trypanosoma cruzi [2]) of less than 4.30 and a pIC50 [3] of 4.40. It also gave a pIC50 (Leishmania donovani [4]) of less than 4.30, a pIC50 (Leishmania donovani [5]) of less than 4.30 and a pIC50 (NIH3T3) of less than 4.30. The pIC50 (Leishmania donovani [6]) was 4.60, the pIC50 (Leishmania donovani [7]) was 4.40 and the pIC50 [8] was 8.10. The IC50 at 48 h [9] was greater than 100 µM, the pIC50 (Trypanosoma cruzi [10]) was 6.70 and the pIC50 [11] was less than 4.40. It also gave a pIC50 (Trypanosoma cruzi [12]) of 6.70.

Compound `CCCn1c(NC(=O)Cc2ccc(Cl)cc2)nc2ccccc21` has a pIC50 (Trypanosoma cruzi [1]) of 6.20, a pIC50 (Trypanosoma cruzi [2]) of less than 4.30 and a pIC50 [3] of 5.70. It also gave a pIC50 (Leishmania donovani [4]) of less than 4.30, a pIC50 (Leishmania donovani [5]) of 5.30 and a pIC50 (NIH3T3) of less than 4.30. For the same compound, the pIC50 (Leishmania donovani [6]) was 5.50, the pIC50 (Leishmania donovani [7]) was 4.40 and the pIC50 [8] was less than 4.00. It also gave an IC50 at 48 h [9] greater than 100 µM, a pIC50 (Trypanosoma cruzi [10]) of 5.70 and a pIC50 [11] of 5.50. For the same compound, the pIC50 (Trypanosoma cruzi [12]) was 5.90.

In the case of `O=C(Nc1nc(-c2ccc(S(=O)(=O)N3CCOCC3)cc2)cs1)c1ccc([N+](=O)[O-])cc1`, the pIC50 (Trypanosoma cruzi [1]) was 6.00, the pIC50 (Trypanosoma cruzi [2]) was less than 4.30 and the pIC50 [3] was 5.40. It also gave a pIC50 (Leishmania donovani [4]) of 5.40, a pIC50 (Leishmania donovani [5]) of less than 4.30 and a pIC50 (NIH3T3) of 4.60. The pIC50 (Leishmania donovani [6]) was 5.60, the pIC50 (Leishmania donovani [7]) was less than 4.30 and the pIC50 [8] was less than 4.00. For the same compound, the IC50 at 48 h [9] was greater than 100 µM, the pIC50 (Trypanosoma cruzi [10]) was 5.80 and the pIC50 [11] was 5.00. The pIC50 (Trypanosoma cruzi [12]) was 6.30.

In the case of `Cc1ccc2sc(NC(=O)Cn3cnc([N+](=O)[O-])n3)nc2c1`, the pIC50 (Trypanosoma cruzi [1]) was 5.90, the pIC50 (Trypanosoma cruzi [2]) was less than 4.30 and the pIC50 [3] was 4.60. For the same compound, the pIC50 (Leishmania donovani [4]) was less than 4.30, the pIC50 (Leishmania donovani [5]) was less than 4.30 and the pIC50 (NIH3T3) was 4.30. The pIC50 (Leishmania donovani [6]) was less than 4.30, the pIC50 (Leishmania donovani [7]) was less than 4.30 and the pIC50 [8] was less than 4.00. It also gave an IC50 at 48 h [9] greater than 100 µM, a pIC50 (Trypanosoma cruzi [10]) of 5.40 and a pIC50 [11] of less than 4.40. The pIC50 (Trypanosoma cruzi [12]) was 6.30.

`CCC(=O)Nc1ccc(C(=O)Nc2ccccc2-c2ccccc2)cc1` gave a pIC50 (Trypanosoma cruzi [1]) of 6.30, a pIC50 (Trypanosoma cruzi [2]) of less than 4.30 and a pIC50 [3] of 4.70. The pIC50 (Leishmania donovani [4]) was 4.80, the pIC50 (Leishmania donovani [5]) was 4.70 and the pIC50 (NIH3T3) was less than 4.30. For the same compound, the pIC50 (Leishmania donovani [6]) was 4.60, the pIC50 (Leishmania donovani [7]) was 5.00 and the pIC50 [8] was less than 4.00. It also gave an IC50 at 48 h [9] greater than 100 µM, a pIC50 (Trypanosoma cruzi [10]) of 6.30 and a pIC50 [11] of 4.60. It also gave a pIC50 (Trypanosoma cruzi [12]) of 6.60.
